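Five concentrations, 48 hours, 96-well plates. GI50 is the concentration that inhibits growth by half.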 Activity calls are given as the source filed them. Cut-off read from the data, not from the text of the source: active = GI50 up to about 1.1 µM and inactive = higher.
Tests used:
Test in all cases: NCI anticancer screen, dose series, 48 h
LXFL 529 = tested on: LXFL 529
SR = tested on: SR
RPMI-8226 = tested on: RPMI-8226
IGROV-1 = tested on: IGROV-1
SF-295 = tested on: SF-295
SK-OV-3 = tested on: SK-OV-3
CAKI-1 = tested on: CAKI-1
NCI-H460 = tested on: NCI-H460
SN12C = tested on: SN12C
SNB-75 = tested on: SNB-75
SNB-78 = tested on: SNB-78
HOP-92 = tested on: HOP-92
786-0 = tested on: 786-0
MOLT-4 = tested on: MOLT-4
XF498 = tested on: XF498
KM-20L2 = tested on: KM-20L2
SNB-19 = tested on: SNB-19
MDA-MB-231 = tested on: MDA-MB-231
T47D = tested on: T47D
DU-145 = tested on: DU-145

Compound	GI50 (LXFL 529)	GI50 (SR)	GI50 (RPMI-8226)	GI50 (IGROV-1)	GI50 (SF-295)	GI50 (SK-OV-3)	GI50 (CAKI-1)	GI50 (NCI-H460)	GI50 (SN12C)	GI50 (SNB-75)	GI50 (SNB-78)	GI50 (HOP-92)	GI50 (786-0)	GI50 (MOLT-4)	GI50 (XF498)	GI50 (KM-20L2)	GI50 (SNB-19)	GI50 (MDA-MB-231)	GI50 (T47D)	GI50 (DU-145)
CCOC(=O)/C(=C/c1ccco1)P(=O)(OCC)OCC	> 100 µM (inactive)	> 100 µM (inactive)	> 100 µM (inactive)	> 100 µM (inactive)	> 100 µM (inactive)	> 100 µM (inactive)	> 100 µM (inactive)	> 100 µM (inactive)	> 100 µM (inactive)	> 100 µM (inactive)	> 100 µM (inactive)	> 100 µM (inactive)	> 100 µM (inactive)	> 100 µM (inactive)	> 100 µM (inactive)					
CC(=O)c1ccc(OCC(O)CO)cc1 (configuration not stated)	51.8 µM (inactive)		62.7 µM (inactive)	> 100 µM (inactive)	> 100 µM (inactive)	> 100 µM (inactive)	> 100 µM (inactive)	> 100 µM (inactive)	> 100 µM (inactive)	> 100 µM (inactive)	> 100 µM (inactive)	> 100 µM (inactive)	25.6 µM (inactive)	> 100 µM (inactive)		> 100 µM (inactive)	> 100 µM (inactive)			
NCc1ccccc1C1CSCSC1	> 100 µM (inactive)				> 100 µM (inactive)	> 100 µM (inactive)		> 100 µM (inactive)	> 100 µM (inactive)	> 100 µM (inactive)	> 100 µM (inactive)			> 100 µM (inactive)	> 100 µM (inactive)					
Nc1ccc(N)c2c1C(=O)c1ccccc1C2=O	31.1 µM (inactive)		9.16 µM (inactive)	6.44 µM (inactive)		2.49 µM (inactive)	4.57 µM (inactive)	9.51 µM (inactive)	13.2 µM (inactive)	> 100 µM (inactive)	> 100 µM (inactive)	36.2 µM (inactive)	78.7 µM (inactive)	13.4 µM (inactive)	> 100 µM (inactive)	14.4 µM (inactive)	> 100 µM (inactive)			
CCOc1ccccc1NC(=O)CCc1nnc(S)[nH]1	> 100 µM (inactive)	> 100 µM (inactive)	> 100 µM (inactive)	> 100 µM (inactive)	> 100 µM (inactive)	> 100 µM (inactive)	> 100 µM (inactive)	> 100 µM (inactive)	> 100 µM (inactive)		> 100 µM (inactive)	> 100 µM (inactive)	> 100 µM (inactive)	> 100 µM (inactive)			> 100 µM (inactive)			
Cc1ccc(C)c(NC(=O)C(=O)CC(=O)C2CCOC2=O)c1 (configuration not stated)	> 100 µM (inactive)		> 100 µM (inactive)	> 100 µM (inactive)	> 100 µM (inactive)	> 100 µM (inactive)	> 100 µM (inactive)	> 100 µM (inactive)	> 100 µM (inactive)	67.5 µM (inactive)	> 100 µM (inactive)	> 100 µM (inactive)	> 100 µM (inactive)		> 100 µM (inactive)	> 100 µM (inactive)	> 100 µM (inactive)			
CCCCCCCCOCC(O)COC(=O)CCCCCCC (configuration not stated)	> 100 µM (inactive)	17.4 µM (inactive)	27.1 µM (inactive)	> 100 µM (inactive)	> 100 µM (inactive)	> 100 µM (inactive)	> 100 µM (inactive)	> 100 µM (inactive)	> 100 µM (inactive)			25.2 µM (inactive)	> 100 µM (inactive)	32.7 µM (inactive)		> 100 µM (inactive)	> 100 µM (inactive)			
Oc1cc(-c2ccc(Oc3ccccc3)cc2)nc2cc3c(cc12)OCO3	> 100 µM (inactive)	> 100 µM (inactive)	> 100 µM (inactive)	> 100 µM (inactive)	> 100 µM (inactive)			> 100 µM (inactive)	> 100 µM (inactive)	27.2 µM (inactive)			> 100 µM (inactive)	> 100 µM (inactive)	> 100 µM (inactive)	> 100 µM (inactive)	> 100 µM (inactive)			
CCOC(=O)C12CCC(=O)C=C1[C@@H](C)C(=O)CC2 (some centres not stated)	> 100 µM (inactive)	> 100 µM (inactive)	> 100 µM (inactive)	> 100 µM (inactive)	> 100 µM (inactive)	> 100 µM (inactive)		> 100 µM (inactive)	> 100 µM (inactive)	> 100 µM (inactive)		93.3 µM (inactive)			> 100 µM (inactive)	> 100 µM (inactive)				
O=C(c1ccccc1O)c1cc(-c2ncc3c(=O)c4ccccc4oc3n2)c(-c2ccccc2O)[nH]c1=O			20.1 µM (inactive)	26.9 µM (inactive)	11.4 µM (inactive)	25.9 µM (inactive)	8.02 µM (inactive)	23.3 µM (inactive)	23.8 µM (inactive)	19.2 µM (inactive)	34.2 µM (inactive)	23.4 µM (inactive)		18.1 µM (inactive)	29.9 µM (inactive)		8.73 µM (inactive)			
O=NN(CCF)C(=O)NC1CC2CCC1C2 (configuration not stated)			> 54.3 µM (inactive)	> 72.9 µM (inactive)	> 100 µM (inactive)	> 100 µM (inactive)	> 100 µM (inactive)	> 100 µM (inactive)	> 100 µM (inactive)	> 100 µM (inactive)	> 100 µM (inactive)	> 100 µM (inactive)		> 100 µM (inactive)	< 0.01 µM (active)	> 100 µM (inactive)	> 100 µM (inactive)			
COC(=O)C(CC(=O)c1cc2c(cc1I)OCO2)Cc1cc(OC)c(OC)c(OC)c1I (configuration not stated)	12.2 µM (inactive)	8.69 µM (inactive)	8.13 µM (inactive)	> 100 µM (inactive)	16.8 µM (inactive)	> 100 µM (inactive)	25 µM (inactive)	> 100 µM (inactive)	> 100 µM (inactive)			14.3 µM (inactive)	> 100 µM (inactive)	8.67 µM (inactive)	> 100 µM (inactive)	> 100 µM (inactive)	> 100 µM (inactive)			
NS(=O)(=O)c1ccc(NC(=O)C2C(=O)C(=O)N(c3ccc(S(N)(=O)=O)cc3)C2=O)cc1 (configuration not stated)	> 100 µM (inactive)	> 100 µM (inactive)	> 100 µM (inactive)	> 100 µM (inactive)	> 100 µM (inactive)	> 100 µM (inactive)	> 100 µM (inactive)		> 100 µM (inactive)	> 100 µM (inactive)	> 100 µM (inactive)	> 100 µM (inactive)	> 100 µM (inactive)	> 100 µM (inactive)		> 100 µM (inactive)	> 100 µM (inactive)			
COC(=O)[C@]1(c2ccc(N(C)C)cc2OC)C[C@@H]2CCCN(CCc3c1[nH]c1ccccc31)C2			28.1 µM (inactive)	20.2 µM (inactive)	> 43.7 µM (inactive)	> 47 µM (inactive)	54.1 µM (inactive)	16.7 µM (inactive)	19.3 µM (inactive)	12.4 µM (inactive)	31 µM (inactive)	10.7 µM (inactive)		31 µM (inactive)	18.7 µM (inactive)	17.1 µM (inactive)	74 µM (inactive)			
Cc1nc2c(n1-c1ccccc1)C(=O)c1ccccc1C2=O		37.1 µM (inactive)			38.4 µM (inactive)	> 100 µM (inactive)	70.8 µM (inactive)	39.3 µM (inactive)	38.2 µM (inactive)	> 100 µM (inactive)	27.5 µM (inactive)		76.7 µM (inactive)	30.3 µM (inactive)			50.2 µM (inactive)			
Nc1ccc(-c2nc3ccccc3s2)cc1	17.5 µM (inactive)	18.4 µM (inactive)	28.6 µM (inactive)	18.5 µM (inactive)	29.9 µM (inactive)	45.5 µM (inactive)	24.2 µM (inactive)	20.8 µM (inactive)	19.1 µM (inactive)	23.8 µM (inactive)	21.6 µM (inactive)	11.4 µM (inactive)	16.2 µM (inactive)	23.1 µM (inactive)		37.8 µM (inactive)	28.1 µM (inactive)	17.9 µM (inactive)	20.7 µM (inactive)	16.4 µM (inactive)
COC(=O)CC(=O)OSc1ccccc1		6.03 µM (inactive)	15.7 µM (inactive)	7.71 µM (inactive)	27.5 µM (inactive)	21.1 µM (inactive)		38.5 µM (inactive)	12.9 µM (inactive)			17.7 µM (inactive)		4.63 µM (inactive)		20 µM (inactive)	41.7 µM (inactive)			
COC(=O)C(C/C=C(\C)c1ccccc1)C(C)=O (configuration not stated)			27.2 µM (inactive)	> 100 µM (inactive)	18.4 µM (inactive)	> 100 µM (inactive)		85.3 µM (inactive)	> 100 µM (inactive)	47.3 µM (inactive)	> 68.5 µM (inactive)	17.1 µM (inactive)		16.4 µM (inactive)	> 80.9 µM (inactive)	> 100 µM (inactive)	> 100 µM (inactive)			
Cc1cccc(C)c1NC(=O)CCc1nnc(S)[nH]1	> 100 µM (inactive)		> 100 µM (inactive)	> 100 µM (inactive)		> 100 µM (inactive)	> 100 µM (inactive)	> 100 µM (inactive)	> 100 µM (inactive)	> 100 µM (inactive)	> 100 µM (inactive)	> 100 µM (inactive)	> 100 µM (inactive)	> 100 µM (inactive)	> 100 µM (inactive)	> 100 µM (inactive)	> 100 µM (inactive)			

From ChEMBL document CHEMBL1201862, “PubChem BioAssay data set” (2004)
